Measurements from patent US20180155757A1, “IDENTIFICATION OF BACTERIA THAT ARE RESISTANT TO CARBAPENEMS BY MEMBRANE IMPERVIOUSNESS” (BIOMÉRIEUX, priority 2015, published 2018).

Key:
Type in all cases: cell-based
[1] = tested on: K. pneumoniae 1108001 (KPC-2 producer); assay: MIC of PMBN
Method: (§1) Likewise, prior to carrying out the discriminating method according to the invention, the PMBN-sensitivity of each of the model strains used was evaluated by means of a method of microdilution in liquid medium.
(§2) To do this, each of the strains was cultured in Mueller-Hinton broth (MHII-Becton Dickinson®, United States). On inocula containing 2×10^5 CFU/ml, serial doubling dilutions were carried out for the PMBN in order to determine the minimum inhibitory concentrations. The PMBN-sensitivity was read after 18 hours of incubation at 37° C., by addition of 0.2 mg/ml of iodonitrotetrazolium chloride (Sigma-Aldrich®, United States).

[2] = tested on: E. cloacae 1008096 (VIM-1 producer); assay: MIC of PMBN
Method: as §1, §2

[3] = tested on: E. cloacae 0901026 (KPC-2 producer); assay: MIC of PMBN
Method: as §1, §2

[4] = tested on: E. coli 0506040 (VIM-1 producer); assay: MIC of PMBN
Method: as §1, §2

K. pneumoniae 1002015 = assay: MIC of PMBN
Method: as §1, §2

[5] = tested on: E. cloacae 1101172 (NDM producer); assay: MIC of PMBN
Method: as §1, §2

[6] = tested on: K. pneumoniae 1108007 (VIM-1 producer); assay: MIC of PMBN
Method: as §1, §2

[7] = tested on: K. pneumoniae 0901027 (KPC-3 producer); assay: MIC of PMBN
Method: as §1, §2

[8] = tested on: E. cloacae 1008079 (IMP-1 producer); assay: MIC of PMBN
Method: as §1, §2

[9] = tested on: E. coli 1008077 (VIM-1 producer); assay: MIC of PMBN
Method: as §1, §2

[10] = tested on: K. pneumoniae 1012335 (OXA-48 producer); assay: MIC of PMBN
Method: as §1, §2

K. pneumoniae 1204034 = assay: MIC of PMBN
Method: as §1, §2

[11] = tested on: K. pneumoniae 0404024 (VIM-1 producer); assay: MIC of PMBN
Method: as §1, §2

E. aerogenes 9203076 = assay: MIC of PMBN
Method: as §1, §2

[12] = tested on: K. pneumoniae 1108002 (KPC-3 producer); assay: MIC of PMBN
Method: as §1, §2

[13] = tested on: E. cloacae 1008073 (VIM-1 producer); assay: MIC of PMBN
Method: as §1, §2

E. coli 1204043 = assay: MIC of PMBN
Method: as §1, §2

[14] = tested on: K. pneumoniae 1104053 (OXA-48 producer); assay: MIC of PMBN
Method: as §1, §2

E. cloacae 9402034 = assay: MIC of PMBN
Method: as §1, §2

E. cloacae 9304026 = assay: MIC of PMBN
Method: as §1, §2

E. aerogenes 1204048 = assay: MIC of PMBN
Method: as §1, §2

[15] = tested on: E. coli 1012292 (KPC-2 producer); assay: MIC of PMBN
Method: as §1, §2

E. aerogenes 9306071 = assay: MIC of PMBN
Method: as §1, §2

C. freundii 0403012 = assay: MIC of PMBN
Method: as §1, §2

C. freundii 1204047 = assay: MIC of PMBN
Method: as §1, §2

[16] = tested on: S. marcescens 1008175 (IMP-1 producer); assay: MIC of PMBN
Method: as §1, §2

[17] = tested on: Enterobacter aerogenes EA 27; assay: MIC of PMBN, microdilution in liquid medium
Method: as §1, §2

polymyxin B nonapeptide [PMBN]
MICPMBN [1]: MICPMBN = 1024 μg/ml
MICPMBN [2]: MICPMBN = 1024 μg/ml
MICPMBN [3]: MICPMBN = 1024 μg/ml
MICPMBN [4]: MICPMBN = 128 μg/ml
MICPMBN (K. pneumoniae 1002015): MICPMBN = 1024 μg/ml
MICPMBN [5]: MICPMBN = 1024 μg/ml
MICPMBN [6]: MICPMBN = 1024 μg/ml
MICPMBN [7]: MICPMBN >1024 μg/ml
MICPMBN [8]: MICPMBN >1024 μg/ml
MICPMBN [9]: MICPMBN = 1024 μg/ml
MICPMBN [10]: MICPMBN = 1024 μg/ml
MICPMBN (K. pneumoniae 1204034): MICPMBN = 256 ng/ml
MICPMBN [11]: MICPMBN >1024 μg/ml
MICPMBN (E. aerogenes 9203076): MICPMBN = 1024 μg/ml
MICPMBN [12]: MICPMBN >1024 μg/ml
MICPMBN [13]: MICPMBN = 1024 μg/ml
MICPMBN (E. coli 1204043): MICPMBN = 512 μg/ml
MICPMBN [14]: MICPMBN = 1024 μg/ml
MICPMBN (E. cloacae 9402034): MICPMBN >1024 μg/ml
MICPMBN (E. cloacae 9304026): MICPMBN >1024 μg/ml
MICPMBN (E. aerogenes 1204048): MICPMBN >1024 μg/ml
MICPMBN [15]: MICPMBN = 1024 μg/ml
MICPMBN (E. aerogenes 9306071): MICPMBN = 1024 μg/ml
MICPMBN (C. freundii 0403012): MICPMBN = 256 μg/ml
MICPMBN (C. freundii 1204047): MICPMBN = 1024 μg/ml
MICPMBN [16]: MICPMBN = 1024 μg/ml
MICPMBN [17]: MICPMBN = 1024 μg/ml
